For experiment [1], the target named is T1, Eukaryotic translation initiation factor 2-alpha kinase 3 (Homo sapiens, UniProt Q9NZJ5). The experiment is described as follows: Dose response cell-based high-throughput screening assay to measure PERK inhibition. [Related pubchem assays: 1416 ]. The class given is functional.
Experiment [2] concerns the target T1, Eukaryotic translation initiation factor 2-alpha kinase 3. The experiment in a line: Counterscreen assay for PERK inhibitors: Dose response cell-based high throughput screening assay to measure inhibition of PERK at 6 hours. [Related pubchem assays: 1522, 1416 ]. The format is functional.
In experiment [3] the target is T2, Heat shock factor protein 1 (Mus musculus, UniProt P38532).
T2 sequence (P38532 whole entry): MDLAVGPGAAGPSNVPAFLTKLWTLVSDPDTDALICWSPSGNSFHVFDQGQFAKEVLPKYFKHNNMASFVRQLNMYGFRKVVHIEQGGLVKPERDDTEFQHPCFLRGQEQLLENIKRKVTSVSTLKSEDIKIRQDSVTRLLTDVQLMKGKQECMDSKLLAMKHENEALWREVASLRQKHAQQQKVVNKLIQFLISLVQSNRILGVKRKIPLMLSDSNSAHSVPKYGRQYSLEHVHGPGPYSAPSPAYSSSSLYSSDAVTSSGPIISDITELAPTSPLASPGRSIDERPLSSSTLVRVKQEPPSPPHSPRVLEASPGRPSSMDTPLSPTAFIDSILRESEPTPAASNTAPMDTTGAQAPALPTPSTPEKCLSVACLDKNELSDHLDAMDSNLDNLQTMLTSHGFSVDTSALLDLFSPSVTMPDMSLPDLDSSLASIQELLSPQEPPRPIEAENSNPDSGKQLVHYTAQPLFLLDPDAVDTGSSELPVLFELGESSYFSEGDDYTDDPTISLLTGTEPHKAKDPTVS
The experiment is described as follows: decrease of HSF1-responsive luciferase luminescence – cell-based, NIH3T3, dose retest, confirmation (AID 2382).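 Note: NIH3T3 fibroblasts with HSF1-driven luciferase reporter stressed by proteasome inhibitor MG132; luminescence from HSF1-driven luciferase expression after 8 hours of MG132 stress.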 The class given is functional.

Experiment [4] addresses Dual specificity protein phosphatase 3 (Homo sapiens, UniProt P51452). The experiment is described as follows: inhibition constants for human DUSP3 – biochemical, colorimetric, SAR follow-up (AID 2004).
In experiment [5] the target is Lysosomal acid glucosylceramidase (Homo sapiens, UniProt P04062). The experiment in a line: Dose response cell-based high throughput screening assay to identify enhancers of beta-glucosidase activity. [Related pubchem assays: 784 ]. The class given is functional.
A short description of experiment [6]: mRNA 3' processing disruption, beta-gal signal increase – luminescence, S. cerevisiae SKY197-pL101, dose response (AID 2525). The format is functional, cell-based.
Experiment [7] in a line: Luminescence Cell-Based Dose Confirmation HTS to Identify Inhibitors of Polyadenylation. The format is functional.
Experiment [8] deals with Melanocortin receptor 4 (Homo sapiens, UniProt P32245). The experiment is described as follows: inhibitors of MC4R cAMP signaling – cell-based, TR-FRET, biased antagonists, dose response (AID 602298).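 Note: antagonist potency against agonist-stimulated cAMP production.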 The class given is functional.
In experiment [9] the target is Photoreceptor-specific nuclear receptor (Homo sapiens, UniProt Q9Y5X4). The format is functional.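 Note: potency for compounds that break the NR2E3 corepressor complex and count as activators.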
For experiment [10], the target named is Peroxisome proliferator-activated receptor gamma/Nuclear receptor corepressor 2 (Homo sapiens, UniProt P37231+Q9Y618). The class given is functional.
A short description of experiment [11]: cAMP pathway inhibition in counterscreen cell line – TR-FRET cAMP detection, counter-screen for MC4R biased antagonist project, dose response (AID 602305).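 Note: U2OS cells stimulated with forskolin near its EC80 as the cAMP inducer; potency is for inhibition of forskolin-stimulated cAMP signaling.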 The class given is functional, cell-based. In general terms: Counterscreens check selectivity or assay interference.
Experiment [12] has as its target Cytochrome P450 2C19 (Homo sapiens, UniProt P33261). The experiment is described as follows: qHTS Assay for Inhibitors and Substrates of Cytochrome P450 2C19. [Related pubchem assays: 410 ]. The class given is ADME. The note with it: read-out: Potency.
Experiment [13] addresses Cytochrome P450 2C9 (Homo sapiens, UniProt P11712). As to conditions: Potency.
Experiment [14] concerns the target T3, RNA-binding protein pos-1 (Caenorhabditis elegans, UniProt G5EF15).
T3 sequence (G5EF15 whole entry): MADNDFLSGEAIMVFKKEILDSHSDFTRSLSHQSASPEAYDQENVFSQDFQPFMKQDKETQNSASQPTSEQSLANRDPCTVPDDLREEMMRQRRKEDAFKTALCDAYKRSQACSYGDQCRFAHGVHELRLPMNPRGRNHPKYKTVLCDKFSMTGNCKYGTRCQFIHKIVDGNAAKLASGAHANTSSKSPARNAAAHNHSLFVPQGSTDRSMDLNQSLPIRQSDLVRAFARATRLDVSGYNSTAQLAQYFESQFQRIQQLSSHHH
The experiment in a line: disruptors of C. elegans POS-1 RNA interaction – biochemical, fluorescence polarization, dose response (AID 1964).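 Note: purified POS-1 fused to maltose binding protein made in E. coli; potency of compounds blocking POS-1 binding to fluorescent RNA.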 For orientation: In fluorescence polarisation assays a small probe gives low polarisation when free and higher when bound to something large.

For experiment [15], the target named is Female germline-specific tumor suppressor gld-1 (Caenorhabditis elegans, UniProt Q17339). The experiment is described as follows: blockers of GLD-1/TGE RNA complex formation – biochemical, fluorescence polarization, C. elegans, dose response (AID 2802).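 Note: fluorescence polarization of labeled TGE RNA bound by purified gld-1 protein.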
In experiment [16] the target is Protein Rev (Human immunodeficiency virus type 1 group M subtype B (isolate HXB2)(HIV-1), UniProt P04618). The experiment is described as follows: blockers of HIV Rev/RRE RNA complex – biochemical, fluorescence polarization, HIV-1, dose response (AID 434976). More on the design: species or system Human immunodeficiency virus 1.
Experiment [17] addresses T4, Zinc finger protein mex-5 (Caenorhabditis elegans, UniProt Q9XUB2).
T4 sequence (Q9XUB2 whole entry): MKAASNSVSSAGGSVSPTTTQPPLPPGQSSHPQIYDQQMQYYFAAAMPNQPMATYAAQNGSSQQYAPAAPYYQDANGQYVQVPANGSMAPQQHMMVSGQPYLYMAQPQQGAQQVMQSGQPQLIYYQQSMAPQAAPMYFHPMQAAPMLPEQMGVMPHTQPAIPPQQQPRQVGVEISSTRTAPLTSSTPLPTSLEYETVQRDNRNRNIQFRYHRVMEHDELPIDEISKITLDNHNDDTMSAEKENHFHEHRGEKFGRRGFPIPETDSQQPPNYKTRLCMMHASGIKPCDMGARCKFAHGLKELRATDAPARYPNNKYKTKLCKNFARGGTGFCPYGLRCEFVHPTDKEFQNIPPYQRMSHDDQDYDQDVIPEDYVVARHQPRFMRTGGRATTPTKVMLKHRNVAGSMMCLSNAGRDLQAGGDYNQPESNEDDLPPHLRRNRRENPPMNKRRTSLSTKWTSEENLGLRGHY
The experiment in a line: potency of MEX-5 RNA-binding blockers – biochemical, C. elegans, fluorescence polarization, dose response (AID 1960).

The test system of experiment [18] is Salmon testes DNA. The experiment in a line: acridine orange-DNA binding displacement – biochemical, fluorescence polarization, cherry-picked samples, set 2, artefact control for KSHV LANA DNA-binding inhibitor project, dose response (AID 504727). More on the design: species or system Salmonidae.
For experiment [19], the target named is T5, ORF 73 (Human herpesvirus 8, UniProt O40947).
T5 sequence (O40947 whole entry): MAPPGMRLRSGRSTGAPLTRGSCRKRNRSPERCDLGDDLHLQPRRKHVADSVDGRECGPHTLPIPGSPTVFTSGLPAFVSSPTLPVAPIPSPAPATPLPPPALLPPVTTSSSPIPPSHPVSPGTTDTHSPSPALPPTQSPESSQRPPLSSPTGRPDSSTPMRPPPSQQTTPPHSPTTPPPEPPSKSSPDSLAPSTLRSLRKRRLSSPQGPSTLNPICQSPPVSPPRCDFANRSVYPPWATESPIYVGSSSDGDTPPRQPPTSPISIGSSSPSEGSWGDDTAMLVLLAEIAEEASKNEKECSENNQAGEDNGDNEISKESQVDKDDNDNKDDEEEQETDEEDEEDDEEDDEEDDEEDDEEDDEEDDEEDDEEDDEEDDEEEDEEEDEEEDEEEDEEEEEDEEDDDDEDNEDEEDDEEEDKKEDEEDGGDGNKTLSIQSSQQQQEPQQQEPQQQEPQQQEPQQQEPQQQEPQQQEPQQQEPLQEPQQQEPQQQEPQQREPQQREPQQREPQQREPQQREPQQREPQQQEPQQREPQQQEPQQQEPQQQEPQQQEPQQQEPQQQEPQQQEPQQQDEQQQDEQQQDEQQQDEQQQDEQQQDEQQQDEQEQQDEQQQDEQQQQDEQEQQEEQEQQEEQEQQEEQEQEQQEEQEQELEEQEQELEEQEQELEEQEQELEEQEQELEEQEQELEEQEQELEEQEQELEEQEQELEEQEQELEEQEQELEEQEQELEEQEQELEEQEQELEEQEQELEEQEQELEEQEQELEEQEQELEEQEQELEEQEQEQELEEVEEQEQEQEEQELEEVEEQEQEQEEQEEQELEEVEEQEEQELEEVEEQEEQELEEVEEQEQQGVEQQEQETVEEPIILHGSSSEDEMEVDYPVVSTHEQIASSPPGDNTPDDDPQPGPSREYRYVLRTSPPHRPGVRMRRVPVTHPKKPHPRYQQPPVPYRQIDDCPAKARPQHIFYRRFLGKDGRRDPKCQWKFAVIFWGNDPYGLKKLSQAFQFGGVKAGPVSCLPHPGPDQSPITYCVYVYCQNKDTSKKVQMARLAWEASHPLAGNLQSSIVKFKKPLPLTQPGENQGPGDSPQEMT
The experiment in a line: KSHV LANA DNA-binding disruption – biochemical, fluorescence polarization, cherry-picked samples, dose response (AID 504725).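 Note: fluorescence polarization of a labeled DNA duplex reporting LANA DNA binding; potency is for inhibitors that block LANA binding to the DNA.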 More on the design: species or system Human gammaherpesvirus 8.

For experiment [20], the target named is Metabotropic glutamate receptor 4 (Rattus norvegicus, UniProt P31423). The experiment in a line: Modulation of the Metabotropic Glutamate Receptor mGluR4: Rat PAM Potency. [Related pubchem assays (depositor defined):AID2437, AID2807]. The class given is functional.
The target of experiment [21] is Melanin-concentrating hormone receptor 1 (Homo sapiens, UniProt Q99705). The experiment is described as follows: Late-stage fluorescence-based counterscreen for antagonists of the G-protein coupled receptor 7 (GPR7): cell-based dose response assay to identify antagonists of the melanin-concentrating hormone receptor 1 (MCHR1). [Related pubchem assays (depositor defined):AID1861, AID1880, AID1952, AID2148, AID2251, AID2257, AID485339]. The class given is functional.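 Note: stimulated with 30 nM MCH peptide agonist.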

The test system of experiment [22] is Trypanosoma cruzi. The experiment is described as follows: anti-trypanosomal activity in host cells – cell-based, plate reader, dry powder, set 3, dose response (AID 493197). The format is functional.
Experiment [23] has as its target Polyadenylate-binding protein 1 (Homo sapiens, UniProt P11940). The experiment in a line: blockers of PABP interaction with poly(A) – biochemical, fluorescence polarization, […] (AID 2014).
Experiment [24] can be described thus: Trypanosoma cruzi growth suppression in host cells – NIH3T3 host cells, beta-gal luminescence, confirmation (AID 2044).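 Note: intracellular parasites grown in NIH/3T3 mouse fibroblasts as host cells; luminescent beta-galactosidase reporter signal from transgenic T. cruzi replicating inside host cells; inhibitors lower the luminescence signal.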 The class given is functional, cell-based.
Experiment [25] concerns the target Eukaryotic translation initiation factor 4H (Homo sapiens, UniProt Q15056). The experiment is described as follows: eIF4H binding inhibition – biochemical, uHTS, fluorescence polarization, translation initiation inhibitor project, primary screen (AID 2012).
Experiment [26] in a line: NIH3T3 cell viability loss – ATP luminescence, mouse fibroblasts, counter-screen, dose response (AID 2010).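 Note: cells exposed to compound for about 90 hours before reading.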 The class given is functional, cell-based.
In experiment [27] the target is Cytochrome P450 3A4 (Homo sapiens, UniProt P08684). As to conditions: Potency.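 Note: confirmatory qHTS run detecting inhibitors and substrates of CYP3A4.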

From ChEMBL document CHEMBL1201862, “PubChem BioAssay data set” (2004) come the findings set out here.

One may read the EC50 as the concentration at which the effect is half-maximal. What is called Ki is the dissociation constant of the complex between target and ligand, obtained from inhibition or displacement. The IC50 is the concentration that inhibits the measured activity by half.

Active and inactive are the calls of the source.

T1 sequence (Q9NZJ5 whole entry): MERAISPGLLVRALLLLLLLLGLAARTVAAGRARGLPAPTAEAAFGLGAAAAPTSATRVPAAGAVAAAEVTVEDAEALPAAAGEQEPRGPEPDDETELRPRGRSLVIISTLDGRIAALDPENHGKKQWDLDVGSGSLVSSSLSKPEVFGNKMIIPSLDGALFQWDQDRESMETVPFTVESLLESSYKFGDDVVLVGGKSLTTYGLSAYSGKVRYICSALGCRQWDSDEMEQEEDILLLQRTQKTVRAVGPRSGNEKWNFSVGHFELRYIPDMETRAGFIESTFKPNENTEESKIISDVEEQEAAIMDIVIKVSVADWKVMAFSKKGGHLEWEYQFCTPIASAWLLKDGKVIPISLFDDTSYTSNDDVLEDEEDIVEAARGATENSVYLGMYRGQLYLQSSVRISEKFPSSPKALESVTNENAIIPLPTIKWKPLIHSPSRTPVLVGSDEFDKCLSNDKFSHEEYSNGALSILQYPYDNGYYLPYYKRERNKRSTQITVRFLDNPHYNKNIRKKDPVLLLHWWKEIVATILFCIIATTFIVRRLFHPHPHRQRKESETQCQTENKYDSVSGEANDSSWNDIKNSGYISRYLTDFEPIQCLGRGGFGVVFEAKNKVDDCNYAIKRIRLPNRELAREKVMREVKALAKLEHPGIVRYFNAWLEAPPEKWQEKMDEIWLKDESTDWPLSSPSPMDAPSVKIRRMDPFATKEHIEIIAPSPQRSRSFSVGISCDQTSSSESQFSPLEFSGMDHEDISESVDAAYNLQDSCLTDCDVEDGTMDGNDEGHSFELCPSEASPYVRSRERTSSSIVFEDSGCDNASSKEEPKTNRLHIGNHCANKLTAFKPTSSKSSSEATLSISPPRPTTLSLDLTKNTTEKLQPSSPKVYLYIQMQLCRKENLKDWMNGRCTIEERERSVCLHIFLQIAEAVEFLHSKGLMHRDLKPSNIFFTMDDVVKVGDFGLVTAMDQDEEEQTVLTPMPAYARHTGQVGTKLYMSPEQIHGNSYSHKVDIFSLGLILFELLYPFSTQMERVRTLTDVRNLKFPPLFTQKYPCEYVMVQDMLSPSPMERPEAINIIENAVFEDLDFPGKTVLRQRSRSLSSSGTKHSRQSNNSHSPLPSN
Melanin-concentrating hormone receptor 1, sequence (Q99705 whole entry): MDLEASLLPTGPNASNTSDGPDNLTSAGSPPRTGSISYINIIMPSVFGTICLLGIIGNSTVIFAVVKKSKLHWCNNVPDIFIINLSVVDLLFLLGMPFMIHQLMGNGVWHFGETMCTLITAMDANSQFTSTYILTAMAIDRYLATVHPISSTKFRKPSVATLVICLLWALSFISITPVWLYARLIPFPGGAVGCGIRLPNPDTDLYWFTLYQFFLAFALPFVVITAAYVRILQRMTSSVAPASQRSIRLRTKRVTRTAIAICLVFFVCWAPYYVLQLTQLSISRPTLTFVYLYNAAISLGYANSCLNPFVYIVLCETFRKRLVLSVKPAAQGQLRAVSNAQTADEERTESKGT
Protein Rev, sequence (P04618 whole entry): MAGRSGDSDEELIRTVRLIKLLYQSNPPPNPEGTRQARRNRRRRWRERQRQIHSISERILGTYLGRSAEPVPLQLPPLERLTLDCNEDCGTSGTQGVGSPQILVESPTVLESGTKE
Metabotropic glutamate receptor 4, sequence (P31423 whole entry): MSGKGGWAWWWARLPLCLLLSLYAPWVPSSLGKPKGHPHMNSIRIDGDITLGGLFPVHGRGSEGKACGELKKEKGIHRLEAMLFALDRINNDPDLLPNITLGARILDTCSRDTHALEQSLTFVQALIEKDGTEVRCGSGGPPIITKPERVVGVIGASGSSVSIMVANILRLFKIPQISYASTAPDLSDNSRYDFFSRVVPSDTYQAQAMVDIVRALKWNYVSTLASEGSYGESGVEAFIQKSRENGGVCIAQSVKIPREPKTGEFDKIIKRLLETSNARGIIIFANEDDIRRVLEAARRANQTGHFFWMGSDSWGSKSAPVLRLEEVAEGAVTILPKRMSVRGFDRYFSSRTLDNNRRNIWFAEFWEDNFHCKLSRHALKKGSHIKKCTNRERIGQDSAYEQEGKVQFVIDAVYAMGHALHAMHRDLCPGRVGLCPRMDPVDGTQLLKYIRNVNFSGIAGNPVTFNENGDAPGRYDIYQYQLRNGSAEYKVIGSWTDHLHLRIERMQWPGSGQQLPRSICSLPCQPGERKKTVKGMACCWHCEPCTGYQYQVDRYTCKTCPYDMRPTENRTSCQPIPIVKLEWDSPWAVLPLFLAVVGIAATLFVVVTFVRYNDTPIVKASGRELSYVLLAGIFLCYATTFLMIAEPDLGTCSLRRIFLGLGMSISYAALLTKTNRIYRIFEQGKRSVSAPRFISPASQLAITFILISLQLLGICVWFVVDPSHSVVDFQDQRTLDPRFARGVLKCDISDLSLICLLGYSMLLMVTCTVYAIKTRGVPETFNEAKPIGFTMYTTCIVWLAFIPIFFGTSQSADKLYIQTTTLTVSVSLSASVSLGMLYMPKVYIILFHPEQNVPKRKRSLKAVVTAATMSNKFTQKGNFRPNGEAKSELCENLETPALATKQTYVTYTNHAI
Polyadenylate-binding protein 1, sequence (P11940 whole entry): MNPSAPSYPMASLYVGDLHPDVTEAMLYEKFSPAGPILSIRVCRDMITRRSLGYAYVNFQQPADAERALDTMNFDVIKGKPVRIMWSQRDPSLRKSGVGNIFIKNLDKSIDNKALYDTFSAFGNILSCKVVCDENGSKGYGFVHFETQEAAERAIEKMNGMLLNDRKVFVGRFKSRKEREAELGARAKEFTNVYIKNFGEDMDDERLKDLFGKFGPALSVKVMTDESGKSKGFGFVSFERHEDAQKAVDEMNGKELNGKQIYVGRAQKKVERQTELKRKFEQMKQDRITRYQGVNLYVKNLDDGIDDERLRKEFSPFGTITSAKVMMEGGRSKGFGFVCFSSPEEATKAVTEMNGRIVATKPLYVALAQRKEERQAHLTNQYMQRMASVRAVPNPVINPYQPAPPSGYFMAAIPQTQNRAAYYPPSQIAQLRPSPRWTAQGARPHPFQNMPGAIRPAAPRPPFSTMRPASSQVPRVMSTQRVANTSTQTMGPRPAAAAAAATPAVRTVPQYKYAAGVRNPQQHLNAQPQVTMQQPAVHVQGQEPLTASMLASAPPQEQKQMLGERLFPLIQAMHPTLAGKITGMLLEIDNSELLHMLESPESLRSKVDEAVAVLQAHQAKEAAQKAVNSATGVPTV
Photoreceptor-specific nuclear receptor, sequence (Q9Y5X4 whole entry): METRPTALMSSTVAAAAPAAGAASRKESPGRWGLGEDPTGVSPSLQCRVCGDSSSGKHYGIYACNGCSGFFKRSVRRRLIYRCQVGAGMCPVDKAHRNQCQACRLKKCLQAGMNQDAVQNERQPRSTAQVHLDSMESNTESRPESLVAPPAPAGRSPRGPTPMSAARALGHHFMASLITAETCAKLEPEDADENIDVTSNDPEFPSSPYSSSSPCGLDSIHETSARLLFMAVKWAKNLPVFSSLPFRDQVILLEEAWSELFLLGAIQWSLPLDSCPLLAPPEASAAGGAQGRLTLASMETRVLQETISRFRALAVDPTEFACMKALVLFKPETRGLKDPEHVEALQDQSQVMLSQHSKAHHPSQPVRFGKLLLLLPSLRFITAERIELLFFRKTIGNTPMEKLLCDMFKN
Dual specificity protein phosphatase 3, sequence (P51452 whole entry): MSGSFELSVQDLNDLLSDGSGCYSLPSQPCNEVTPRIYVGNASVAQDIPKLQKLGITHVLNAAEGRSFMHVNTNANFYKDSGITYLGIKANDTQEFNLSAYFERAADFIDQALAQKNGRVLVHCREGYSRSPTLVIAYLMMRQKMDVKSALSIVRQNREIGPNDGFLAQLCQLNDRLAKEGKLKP
Female germline-specific tumor suppressor gld-1, sequence (Q17339 whole entry): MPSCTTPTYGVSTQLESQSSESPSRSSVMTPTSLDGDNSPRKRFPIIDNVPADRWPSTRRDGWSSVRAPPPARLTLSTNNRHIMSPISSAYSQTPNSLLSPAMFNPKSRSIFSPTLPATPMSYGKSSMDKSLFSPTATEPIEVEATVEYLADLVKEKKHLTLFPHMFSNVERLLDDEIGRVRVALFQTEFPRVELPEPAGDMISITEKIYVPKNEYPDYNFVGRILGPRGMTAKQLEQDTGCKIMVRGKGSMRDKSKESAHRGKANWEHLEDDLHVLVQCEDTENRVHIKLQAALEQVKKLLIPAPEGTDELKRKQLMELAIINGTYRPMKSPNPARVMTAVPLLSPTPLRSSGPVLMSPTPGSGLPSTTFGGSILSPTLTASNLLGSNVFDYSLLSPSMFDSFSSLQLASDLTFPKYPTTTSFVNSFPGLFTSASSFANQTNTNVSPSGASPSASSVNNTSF
Lysosomal acid glucosylceramidase, sequence (P04062 whole entry): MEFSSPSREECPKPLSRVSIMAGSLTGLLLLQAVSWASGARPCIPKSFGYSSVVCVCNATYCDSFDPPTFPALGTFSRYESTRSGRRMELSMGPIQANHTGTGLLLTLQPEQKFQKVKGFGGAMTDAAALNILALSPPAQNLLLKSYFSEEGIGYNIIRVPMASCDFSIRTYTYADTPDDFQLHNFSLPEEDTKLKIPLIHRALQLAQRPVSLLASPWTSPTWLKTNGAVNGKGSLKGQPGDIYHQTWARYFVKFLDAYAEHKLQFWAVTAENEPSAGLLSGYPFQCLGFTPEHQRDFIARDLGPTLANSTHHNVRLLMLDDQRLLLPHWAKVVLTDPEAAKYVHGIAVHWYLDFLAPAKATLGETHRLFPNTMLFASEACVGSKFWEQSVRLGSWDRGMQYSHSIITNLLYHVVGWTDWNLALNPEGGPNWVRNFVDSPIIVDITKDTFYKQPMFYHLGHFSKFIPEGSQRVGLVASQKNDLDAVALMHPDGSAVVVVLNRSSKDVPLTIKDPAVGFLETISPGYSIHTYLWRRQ

For `O=C(NNc1ccccc1F)c1ccccc1`, the EC50 in experiment [1] and in experiment [2] was > 55.7 µM (not active) each time.

Take `Cc1ccc(S(=O)(=O)N2CCN(C(=O)c3cccc(F)c3)CC2)cc1`: the EC50 in experiment [3] is listed as > 195 µM (not active). Besides, the Ki in experiment [4] was 39.4 µM (inactive).

Regarding `CCC(C)n1cnc2c(c1=O)c1nc3ccccc3nc1n2Cc1ccc2c(c1)OCO2` (configuration not stated), in experiment [5], the EC50 was > 10 µM (not active).

Regarding `N#CC1(C#N)C2=C(CCCC2)NC(c2ccccc2)C1(C#N)C#N` (configuration not stated), the EC50 was 3.77 µM (active) in experiment [6] and 7.92 µM (active) in experiment [7].

Turning to `O=C(O)c1cc(-c2ccc3c(c2)OCO3)nc2ccc(Br)cc12`, the IC50 in experiment [8] is 35.7 µM (inactive); in [9], > 39.8 µM (not active); in experiment [10] it was 1.76 µM (active); in [11], > 64.6 µM (inactive).

With `CCCC[C@@H]1C[C@H]1C(NP(=O)(c1ccccc1)c1ccccc1)c1ccc(Cl)cc1` (some centres not stated), the AC50 in experiment [12] was 10 µM (inconclusive); in experiment [13] it was 15.8 µM (inconclusive).

For `O=C1CS/C(=C\[N+](=O)[O-])N1c1ccccc1`, the EC50 in experiment [14] was > 300 µM (not active); in [17] it was 190 µM (active). Also, the results for the IC50 in experiment [15] and in experiment [16] were > 59.6 µM (inactive) and 3.03 µM (active), respectively.

`COC(=O)c1cc(N2CCN(C)CC2)nc2ccccc12`: the AC50 is 137 µM (active) in experiment [18] and 59.9 µM (active) in experiment [19].

For the compound `O=C(Nc1ccc(N2C(=O)c3cccc(Cl)c3C2=O)c(Cl)c1)c1ccccn1`, the EC50 in [20] is 0.03 µM (active).

With `Cc1ccc(-n2ncc(Cl)c(Oc3ccc(F)cc3F)c2=O)cc1`, the IC50 in [21] was 17.4 µM (inactive).

With `CN(Cc1ccccc1)C(=O)C1CCCN(Cc2ccc([N+](=O)[O-])cc2)C1` (configuration not stated), the AC50 in [22] is 7.63 µM (active).

Turning to `COc1ccc(N=C(C)N(C)CCNS(=O)(=O)c2ccc(Cl)cc2)cc1Cl`, the IC50 in experiment [23] was 5.82 µM (active); in experiment [25], > 100 µM (inactive). Further, the half-maximal effective concentration (EC50) is 0.271 µM (active) in experiment [24] and > 60 µM (not active) in experiment [26].

As for `COc1ccc(-c2coc3c(OC)c(OC)cc(O)c3c2=O)cc1` [ISOTECTORIGENIN, 7-METHYL ETHER], in experiment [27], the AC50 is 39.8 µM (inconclusive).
